Consider 31 compounds from patent US10266526B2, “Substituted 1,2,3-triazoles as SMYD inhibitors for treating cancer” (EPIZYME, INC., priority 2014, dated 2019).

The assay concerns the target SMYD3 (Homo sapiens (Human), UniProt Q9H7B4). The experiment in a line: SMYD3 biochemical assay (SMYD3 enzyme assay on MEKK2 protein substrate, 3H-SAM scintillation proximity assay). To be noted: read-out: SMYD3 Biochem IC50. Summed up: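 Detection used scintillation proximity beads to capture ³H-methylated GST-MEKK2 after quench with 100 uM final cold SAM. The reaction was started by SAM/MEKK2 addition after a 30 min RT compound–enzyme preincubation. Enzyme was tag-free full-length human SMYD3 from E. coli, in buffer of 25 mM Tris-Cl pH 8.0, 1 mM TCEP, 0.005% BSG, 0.005% Tween 20.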
(In a scintillation proximity assay essentially only radioactivity close to the scintillant gives light.)

What is called IC50 is the concentration that inhibits the measured activity by half.

Sequence of SMYD3 (Q9H7B4 whole entry): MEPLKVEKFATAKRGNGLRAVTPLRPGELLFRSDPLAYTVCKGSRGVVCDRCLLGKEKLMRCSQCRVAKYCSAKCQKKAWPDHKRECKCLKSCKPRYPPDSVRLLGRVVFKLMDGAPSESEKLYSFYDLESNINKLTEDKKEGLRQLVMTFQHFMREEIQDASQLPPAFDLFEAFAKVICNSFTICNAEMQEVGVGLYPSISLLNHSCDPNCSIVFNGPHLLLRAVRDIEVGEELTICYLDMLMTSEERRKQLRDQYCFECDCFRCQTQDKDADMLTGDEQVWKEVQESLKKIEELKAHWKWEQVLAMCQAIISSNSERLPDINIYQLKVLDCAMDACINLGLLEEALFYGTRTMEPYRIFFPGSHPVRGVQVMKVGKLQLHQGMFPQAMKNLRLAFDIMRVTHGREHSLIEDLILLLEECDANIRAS

`Cc1ncc(C(=O)NC(C)C2CCN(C(=O)[C@H](C)N)CC2)cn1` (stereo partly drawn) [compound 183, N-(1-(1-(L-alanyl)piperidin-4-yl)ethyl)-2-methylpyrimidine-5-carboxamide]: the IC50 is above 100 µM.
With `Cc1ncc(C(=O)N[C@H]2CC[C@H](NC(=O)CCN)CC2)cn1` [compound 184, N-((1r,4r)-4-(3-aminopropanamido)cyclohexyl)-2-methylpyrimidine-5-carboxamide] the figure was 35.8 µM; with `Cc1cnc(C(=O)NC(C)C2CCN(C(=O)[C@H](C)N)CC2)cn1` (stereo partly drawn) [compound 185, N-(1-(1-(L-alanyl)piperidin-4-yl)ethyl)-5-methylpyrazine-2-carboxamide], above 100 µM; with `Cc1cnc(C(=O)N[C@H]2CC[C@H](N)CC2)cn1` [compound 186, N-((1r,4r)-4-aminocyclohexyl)-5-methylpyrazine-2-carboxamide], above 100 µM.
With `CC(NC(=O)c1ccnc(N)c1)C1CCN(C(=O)[C@H](C)N)CC1` (stereo partly drawn) [compound 187, N-(1-(1-(L-alanyl)piperidin-4-yl)ethyl)-2-aminoisonicotinamide] the figure was above 100 µM.
For `CC(NC(=O)c1nccnc1N)C1CCN(C(=O)[C@H](C)N)CC1` (stereo partly drawn) [compound 188, N-(1-(1-(L-alanyl)piperidin-4-yl)ethyl)-3-aminopyrazine-2-carboxamide] the value was above 100 µM.
With `CC(NC(=O)c1ccc(-c2ccccc2)cc1)C1CCN(C(=O)[C@H](C)N)CC1` (stereo partly drawn) [compound 189, N-(1-(1-(L-alanyl)piperidin-4-yl)ethyl)-[1,1′-biphenyl]-4-carboxamide], the IC50 is above 100 µM.
With `NS(=O)(=O)c1ccc(C(=O)N[C@H]2CC[C@H](N)CC2)cc1` [compound 190, N-((1r,4r)-4-aminocyclohexyl)-4-sulfamoylbenzamide] the figure was above 100 µM; with `CC(NC(=O)c1ccc(O)nn1)C1CCN(C(=O)[C@H](C)N)CC1` (stereo partly drawn) [compound 191, N-(1-(1-(L-alanyl)piperidin-4-yl)ethyl)-6-hydroxypyridazine-3-carboxamide], above 100 µM.
With `N[C@H]1CC[C@H](NC(=O)c2ccc3[nH]ccc3c2)CC1` [compound 192, N-((1r,4r)-4-aminocyclohexyl)-1H-indole-5-carboxamide] the figure was above 100 µM; with `CC(NC(=O)c1ccc2nc[nH]c2c1)C1CCN(C(=O)[C@H](C)N)CC1` (stereo partly drawn) [compound 193, N-(1-(1-(L-alanyl)piperidin-4-yl)ethyl)-1H-benzo[d]imidazole-6-carboxamide], above 100 µM.
With `CC(NC(=O)c1ccc2cnccc2c1)C1CCN(C(=O)[C@H](C)N)CC1` (stereo partly drawn) [compound 194, N-(1-(1-(L-alanyl)piperidin-4-yl)ethyl)isoquinoline-6-carboxamide] the figure was above 100 µM; with `NCCC(=O)N[C@H]1CC[C@H](NC(=O)Cc2c[nH]c3ccccc23)CC1` [compound 195, N-((1r,4r)-4-(2-(1H-indol-3-yl)acetamido)cyclohexyl)-3-aminopropanamide], above 100 µM.
With `NCCC(=O)N[C@H]1CC[C@H](NC(=O)c2nccc3ccccc23)CC1` [compound 196, N-((1r,4r)-4-(3-aminopropanamido)cyclohexyl)isoquinoline-1-carboxamide], the IC50 was above 100 µM.
With `N[C@H]1CC[C@H](NC(=O)c2nccc3ccccc23)CC1` [compound 197, N-((1r,4r)-4-aminocyclohexyl)isoquinoline-1-carboxamide] the figure was above 100 µM; with `CC(NC(=O)c1cc2cc(F)ccc2[nH]1)C1CCN(C(=O)[C@H](C)N)CC1` (stereo partly drawn) [compound 198, N-(1-(1-(L-alanyl)piperidin-4-yl)ethyl)-5-fluoro-1H-indole-2-carboxamide], 41.7 µM.
With `CC(NC(=O)c1cc(O)nc2ccccc12)C1CCN(C(=O)[C@H](C)N)CC1` (stereo partly drawn) [compound 199, N-(1-(1-(L-alanyl)piperidin-4-yl)ethyl)-2-hydroxyquinoline-4-carboxamide] the figure was above 100 µM; with `NCCC(=O)N[C@H]1CC[C@H](NC(=O)c2cc(O)nc3ccccc23)CC1` [compound 200, N-((1r,4r)-4-(3-aminopropanamido)cyclohexyl)-2-hydroxyquinoline-4-carboxamide], 23.3 µM; with `N[C@H]1CC[C@H](NC(=O)c2cc(O)nc3ccccc23)CC1` [compound 201, N-((1r,4r)-4-aminocyclohexyl)-2-hydroxyquinoline-4-carboxamide], above 100 µM.
With `CC(NC(=O)c1ccc2c(c1)CCCC2)C1CCN(C(=O)[C@H](C)N)CC1` (stereo partly drawn) [compound 202, N-(1-(1-(L-alanyl)piperidin-4-yl)ethyl)-5,6,7,8-tetrahydronaphthalene-2-carboxamide] the figure was 59 µM.
For the compound `NCCC(=O)N[C@H]1CC[C@H](NC(=O)c2ccc3c(c2)CCCC3)CC1` [compound 203, N-((1r,4r)-4-(3-aminopropanamido)cyclohexyl)-5,6,7,8-tetrahydronaphthalene-2-carboxamide], the IC50 is 11.2 µM.
Take `N[C@H]1CC[C@H](NC(=O)c2ccc3c(c2)CCCC3)CC1` [compound 204, N-((1r,4r)-4-aminocyclohexyl)-5,6,7,8-tetrahydronaphthalene-2-carboxamide]: the IC50 amounted to 47.4 µM.
Turning to `CC(NC(=O)c1cnccn1)C1CCN(C(=O)[C@H](C)N)CC1` (stereo partly drawn) [compound 205, N-(1-(1-(L-alanyl)piperidin-4-yl)ethyl)pyrazine-2-carboxamide], the IC50 was above 100 µM.
With `CC(NC(=O)Cc1ccc(F)cc1)C1CCN(C(=O)[C@H](C)N)CC1` (stereo partly drawn) [compound 206, N-(1-(1-(L-alanyl)piperidin-4-yl)ethyl)-2-(4-fluorophenyl)acetamide] the figure was above 100 µM; with `NCCC(=O)N[C@H]1CC[C@H](NC(=O)Cc2ccc(F)cc2)CC1` [compound 207, 3-amino-N-((1r,4r)-4-(2-(4-fluorophenyl)acetamido)cyclohexyl)propanamide], above 100 µM; with `N[C@H]1CC[C@H](NC(=O)Cc2ccc(F)cc2)CC1` [compound 208, N-((1r,4r)-4-aminocyclohexyl)-2-(4-fluorophenyl)acetamide], above 100 µM.
With `CC(NC(=O)c1cc[n+]([O-])cc1)C1CCN(C(=O)[C@H](C)N)CC1` (stereo partly drawn) [compound 209, 4-((1-(1-(L-alanyl)piperidin-4-yl)ethyl)carbamoyl)pyridine 1-oxide] the figure was above 100 µM.
Consider `N[C@H]1CC[C@H](NC(=O)c2cc[n+]([O-])cc2)CC1` [compound 210, 4-(((1r,4r)-4-aminocyclohexyl)carbamoyl)pyridine 1-oxide], for which the IC50 is above 100 µM.
As for `Nc1ccnc2ccc(C(=O)N[C@H]3CC[C@H](N)CC3)cc12` [compound 211, 4-amino-N-((1r,4r)-4-aminocyclohexyl)quinoline-6-carboxamide], the IC50 worked out at 43.7 µM.
With `CC(NC(=O)c1ccc2nccc(N)c2c1)C1CCN(C(=O)[C@H](C)N)CC1` (stereo partly drawn) [compound 212, N-(1-(1-(L-alanyl)piperidin-4-yl)ethyl)-4-aminoquinoline-6-carboxamide] the figure was 15.2 µM; with `O=C1Cc2cc(C(=O)NC[C@@H]3CCNC3)ccc2N1` [compound 213, (R)-2-oxo-N-(pyrrolidin-3-ylmethyl)indoline-5-carboxamide], 17.9 µM.
